Data as given in BindingDB's records for doi:10.1016/j.ejmech.2017.04.043 (University of Illinois At Chicago, 2017).

Target: T1, Gamma-aminobutyric acid receptor subunit alpha-1/beta-2/gamma-2 (Homo sapiens, UniProt P14867+P18507+P47870)
T1 sequence (P14867 whole entry): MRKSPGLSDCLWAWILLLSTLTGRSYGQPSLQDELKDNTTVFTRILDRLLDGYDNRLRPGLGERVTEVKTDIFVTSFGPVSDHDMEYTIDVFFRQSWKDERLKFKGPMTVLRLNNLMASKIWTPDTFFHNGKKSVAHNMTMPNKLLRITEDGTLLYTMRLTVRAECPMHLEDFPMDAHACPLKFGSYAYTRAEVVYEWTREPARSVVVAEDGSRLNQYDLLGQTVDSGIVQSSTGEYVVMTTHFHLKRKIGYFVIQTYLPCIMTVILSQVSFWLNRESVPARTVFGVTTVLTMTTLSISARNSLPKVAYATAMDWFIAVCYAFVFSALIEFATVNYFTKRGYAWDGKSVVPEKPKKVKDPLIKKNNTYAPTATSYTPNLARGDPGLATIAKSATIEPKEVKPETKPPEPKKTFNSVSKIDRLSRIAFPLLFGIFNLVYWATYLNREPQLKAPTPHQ
T1 sequence (P18507 whole entry): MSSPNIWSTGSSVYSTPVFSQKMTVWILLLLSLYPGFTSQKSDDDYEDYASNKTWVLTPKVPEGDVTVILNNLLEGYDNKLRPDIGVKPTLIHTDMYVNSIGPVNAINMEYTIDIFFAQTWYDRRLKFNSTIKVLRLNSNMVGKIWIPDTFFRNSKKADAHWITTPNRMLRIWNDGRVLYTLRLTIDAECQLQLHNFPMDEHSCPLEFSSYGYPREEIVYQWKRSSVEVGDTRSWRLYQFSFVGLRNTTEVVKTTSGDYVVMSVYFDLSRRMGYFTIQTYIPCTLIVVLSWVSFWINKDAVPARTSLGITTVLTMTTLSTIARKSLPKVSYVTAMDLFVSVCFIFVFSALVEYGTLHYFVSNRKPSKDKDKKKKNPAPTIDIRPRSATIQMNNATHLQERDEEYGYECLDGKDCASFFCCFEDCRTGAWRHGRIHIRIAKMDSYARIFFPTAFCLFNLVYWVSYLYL
T1 sequence (P47870 whole entry): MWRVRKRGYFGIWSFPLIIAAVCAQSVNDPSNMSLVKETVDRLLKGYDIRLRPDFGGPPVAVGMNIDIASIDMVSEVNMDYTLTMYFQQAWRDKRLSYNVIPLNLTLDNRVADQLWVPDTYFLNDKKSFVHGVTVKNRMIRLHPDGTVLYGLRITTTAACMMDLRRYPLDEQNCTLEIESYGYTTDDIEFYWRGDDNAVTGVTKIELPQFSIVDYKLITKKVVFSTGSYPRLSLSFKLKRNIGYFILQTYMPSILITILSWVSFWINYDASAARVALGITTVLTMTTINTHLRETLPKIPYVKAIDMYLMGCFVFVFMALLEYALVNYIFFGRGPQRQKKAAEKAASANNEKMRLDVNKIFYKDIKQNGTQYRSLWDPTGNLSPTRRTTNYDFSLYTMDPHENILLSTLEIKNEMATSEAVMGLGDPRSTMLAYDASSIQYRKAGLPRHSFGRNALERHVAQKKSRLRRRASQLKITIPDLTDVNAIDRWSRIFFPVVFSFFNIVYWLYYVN
Assay: Positive allosteric modulation of human GABAA receptor alpha1beta2gamma2L expressed in Xenopus laevis oocytes assessed as potentiation of GABA-induced current by measuring GABA EC50 at 1.4 uM incubated for 15 to 25 secs by two-electrode voltage clamp assay (Rvb = […])

Row | Structure (SMILES) | EC50
1 | CC(=O)[C@H]1CC[C@H]2[C@@H]3CC[C@H]4C[C@H](O)CC[C@]4(C)[C@H]3C3(C[C@]12C)N=N3 | 1230 nM
2 | CC(=O)[C@H]1CC[C@H]2[C@@H]3CC[C@H]4C[C@H](O)CC[C@]4(C)[C@H]3[C@@H](OC(=O)c3c(F)c(F)c(N=[N+]=[N-])c(F)c3F)C[C@]12C | 70 nM
